Converted amounts (≈) assume the structure as drawn.
Experiments:
Type in all cases: functional
Candida albicans [1] = assay: Antifungal activity against Candida albicans ATCC 64124 measured after 48 hrs by broth microdilution analysis
Candida albicans [2] = assay: Synergistic antifungal activity against Candida albicans ATCC 10231 assessed as fluconazole MIC measured after 48 hrs by checkboard based microplate reader analysis
Candida albicans [3] = assay: Synergistic antifungal activity against Candida albicans ATCC 64124 assessed as fluconazole MIC measured after 48 hrs by checkboard based microplate reader analysis
Candida albicans [4] = assay: Antifungal activity against Candida albicans ATCC 10231 measured after 48 hrs by broth microdilution analysis
Candida albicans [5] = assay: Synergistic antifungal activity against Candida albicans ATCC 10231 assessed as itraconazole MIC measured after 48 hrs by checkboard based microplate reader analysis
Candida albicans [6] = assay: Synergistic antifungal activity against Candida albicans ATCC 64124 assessed as itraconazole MIC measured after 48 hrs by checkboard based microplate reader analysis
Candida albicans [7] = assay: Additive antifungal activity against Candida albicans ATCC 10231 assessed as fractional inhibitory concentration index measured for 72 hrs in presence of ketoconazole
Candida albicans [8] = assay: Synergistic antifungal activity against Candida albicans ATCC 10231 assessed as ketoconazole MIC measured after 48 hrs by checkboard based microplate reader analysis
Candida albicans [9] = assay: Synergistic antifungal activity against Candida albicans ATCC 64124 assessed as ketoconazole MIC measured after 48 hrs by checkboard based microplate reader analysis

Compound	MIC (Candida albicans [1])	MIC (Candida albicans [2])	MIC (Candida albicans [3])	MIC (Candida albicans [4])	MIC (Candida albicans [5])	MIC (Candida albicans [6])	fractional inhibitory concentration index (FICI) (Candida albicans [7])	MIC (Candida albicans [8])	MIC (Candida albicans [9])
OC(Cn1cncn1)(Cn1cncn1)c1ccc(F)cc1F [FLUCONAZOLE]	> 32 µg/mL	> 32 µg/mL	> 32 µg/mL	> 32 µg/mL	–	–	–	–	–
CCC(C)n1ncn(-c2ccc(N3CCN(c4ccc(OCC5COC(Cn6cncn6)(c6ccc(Cl)cc6Cl)O5)cc4)CC3)cc2)c1=O (stereo not drawn) [ITRACONAZOLE]	> 32 µg/mL	–	–	1 µg/mL (≈ 1.42 µM)	0.25 µg/mL	> 32 µg/mL	–	–	–
CC(=O)N1CCN(c2ccc(OCC3COC(Cn4ccnc4)(c4ccc(Cl)cc4Cl)O3)cc2)CC1 (stereo not drawn) [KETOCONAZOLE]	8 µg/mL (≈ 15.1 µM)	–	–	1 µg/mL (≈ 1.88 µM)	–	–	2	0.5 µg/mL	4 µg/mL

From ChEMBL document CHEMBL5252541, “Repurposing antipsychotic drugs into antifungal agents: Synergistic combinations of azoles and bromperidol derivatives in the treatment of various fungal infections” (Eur J Med Chem, 2017)
